Data taken from US9469645B2, “Compounds and compositions for the treatment of parasitic diseases” (Novartis AG, priority 2009, dated 2016).

Columns and labels:
W2 strain = assay: parasite proliferation assay in infected red blood cells (SYBR Green I), W2 strain; type: cell-based; conditions: Erythrocyte
Description: Compounds of the invention can be assayed to measure their capacity to inhibit proliferation of parasitemia in infected red blood cells. The proliferation is quantified by the addition of SYBR Green I (INVITROGEN)® dye which has a high affinity for double stranded DNA.

3D7 P. falciparum strain = assay: parasite proliferation assay in infected red blood cells (SYBR Green I); type: cell-based, Plasmodium falciparum; conditions: Plasmodium falciparum, 3D7, Erythrocyte, 3D7 strain; read-out: EC50 3D7 strain
Outline: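 P. falciparum 3D7 grown in O+ human erythrocytes to 3–8% parasitemia and exposed to compounds. Proliferation read as the increase in parasite DNA. Detection used SYBR Green I in saponin/triton-X/EDTA lysis buffer, with overnight lysis at room temperature.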

Compound | EC50 (W2 strain) | EC50 (3D7 P. falciparum strain)
CCCC(=O)Nc1ccc(C[C@H](N)C(=O)N2CCn3c(nc(-c4ccc(F)cc4)c3Nc3ccc(C)cc3)C2)cc1 [Compound 197] | 1040 nM | 4160 nM
Cc1ccc(Nc2c(-c3ccc(F)cc3)nc3n2CCN(C(=O)[C@H]2CCCO2)C3)cc1 [Compound 199] | 157 nM | 240 nM
Cc1ccc(Nc2c(-c3ccc(F)cc3)nc3n2CCN(C(=O)C(C)Oc2ccccc2)C3)cc1 (stereo not drawn) [Compound 202] | 102 nM | 160 nM
Cc1ccc(Nc2c(-c3ccc(F)cc3)nc3n2CCN(C(=O)C(C)Oc2cccc(Cl)c2)C3)cc1 (stereo not drawn) [Compound 203] | 369 nM | 970 nM
Cc1ccc(Nc2c(-c3ccc(F)cc3)nc3n2CCN(C(=O)[C@@H](O)C(C)C)C3)cc1 [Compound 204] | 10 nM | 10 nM
Cc1ccc(Nc2c(-c3ccc(F)cc3)nc3n2CCN(C(=O)Cc2ccncn2)C3)cc1 [Compound 206] | 1170 nM | 1200 nM
Fc1cccc(-c2nc3cnccn3c2Nc2ccc(Cl)c(F)c2)c1 [Compound 207] | 2420 nM | 9310 nM
Cc1ccc(Nc2c(-c3ccc(F)cc3)nc3n2CCN(C(=O)C(Oc2ccccc2C)C(C)C)C3)cc1 (stereo not drawn) [Compound 208] | 1060 nM | 5870 nM
Cc1ccc(Nc2c(-c3ccc(F)cc3)nc3n2CCN(C(=O)C2CCOCC2)C3)cc1 [Compound 209] | 4360 nM | 11600 nM
CCO[C@@H](Cc1ccc(O)cc1)C(=O)N1CCn2c(nc(-c3ccc(F)cc3)c2Nc2ccc(C)cc2)C1 [Compound 210] | 26 nM | 40 nM
Cc1ccc(Nc2c(-c3ccc(F)cc3)nc3n2CCN(C(=O)CC2CCCO2)C3)cc1 (stereo not drawn) [Compound 211] | 283 nM | 300 nM
Cc1ccc(Nc2c(-c3ccc(F)cc3)nc3n2CCN(C(=O)C2CCOC2)C3)cc1 (stereo not drawn) [Compound 212] | 1980 nM | 1950 nM
Cc1ccc(Nc2c(-c3ccc(F)cc3)nc3n2CCN(C(=O)[C@@H](N)Cc2ccc(CN)cc2)C3)cc1 [Compound 213] | 4820 nM | 3800 nM
CCN1CCC(CC(=O)N2CCn3c(nc(-c4ccc(F)cc4)c3Nc3ccc(C)cc3)C2)CC1 [Compound 214] | 2010 nM | 2850 nM
Cc1ccc(Nc2c(-c3ccc(F)cc3)nc3n2CCN(C(=O)CC2CCOC2)C3)cc1 (stereo not drawn) [Compound 215] | 650 nM | 830 nM
Cc1ccc(Nc2c(-c3ccc(F)cc3)nc3n2CCN(C(=O)CC2CCCCO2)C3)cc1 (stereo not drawn) [Compound 216] | 248 nM | 300 nM
Fc1cccc(-c2nc3n(c2Nc2ccc(Cl)c(F)c2)CCNC3)c1 [Compound 217] | 106 nM | 130 nM
CCCC(=O)NCc1ccc(C[C@H](N)C(=O)N2CCn3c(nc(-c4ccc(F)cc4)c3Nc3ccc(C)cc3)C2)cc1 [Compound 218] | 4010 nM | 4710 nM
CCC(=O)NCc1ccc(C[C@H](N)C(=O)N2CCn3c(nc(-c4ccc(F)cc4)c3Nc3ccc(C)cc3)C2)cc1 [Compound 219] | 3410 nM | 4970 nM

Compound | EC50 (W2 strain) | EC50 (3D7 P. falciparum strain)
Cc1ccc(Nc2c(-c3ccc(F)cc3)nc3n2CCN(C(=O)CC2CCNCC2)C3)cc1 [Compound 220] | 937 nM | 1130 nM
NC(C(=O)N1CCn2c(nc(-c3cccc(F)c3)c2Nc2ccc(Cl)c(F)c2)C1)C(F)(F)F (stereo not drawn) [Compound 221] | 83 nM | 90 nM
C[C@@H](C(=O)N1CCn2c(nc(-c3cccc(F)c3)c2Nc2ccc(Cl)c(F)c2)C1)c1ccccc1 [Compound 222] | 103 nM | 140 nM
C[C@H](C(=O)N1CCn2c(nc(-c3cccc(F)c3)c2Nc2ccc(Cl)c(F)c2)C1)c1ccccc1 [Compound 223] | 206 nM | 260 nM
CC[C@H](C(=O)N1CCn2c(nc(-c3ccc(F)cc3)c2Nc2ccc(C)cc2)C1)c1ccccc1 [Compound 225] | 316 nM | 550 nM
Cc1ccc(Nc2c(-c3ccc(F)cc3)nc3n2CCN(C(=O)C(c2ccccc2)C2CCCC2)C3)cc1 (stereo not drawn) [Compound 226] | 348 nM | 480 nM
Cc1ccc(Nc2c(-c3ccc(F)cc3)nc3n2CCN(C(=O)Cc2ccncc2)C3)cc1 [Compound 227] | 103 nM | 90 nM
NCC(=O)N1CCn2c(nc(-c3cccc(F)c3)c2Nc2ccc(Cl)c(F)c2)C1 [Compound 228] | 8 nM | 10 nM
CC(C)(N)C(=O)N1CCn2c(nc(-c3cccc(F)c3)c2Nc2ccc(Cl)c(F)c2)C1 [Compound 229] | 7 nM | 10 nM
Cc1ccc(Nc2c(-c3ccc(F)cc3)nc3n2CCN(C(=O)Cc2cc(Cl)cc(Cl)c2)C3)cc1 [Compound 230] | 255 nM | 320 nM
Cc1ccc(Nc2c(-c3ccc(F)cc3)nc3n2CCN(C(=O)C(c2ccccc2)C(C)C)C3)cc1 (stereo not drawn) [Compound 231] | 70 nM | 90 nM
Cc1ccc(CC(=O)N2CCn3c(nc(-c4ccc(F)cc4)c3Nc3ccc(C)cc3)C2)cc1 [Compound 232] | 44 nM | 50 nM
Cc1ccc(Nc2c(-c3ccc(F)cc3)nc3n2CCN(C(=O)Cc2ccc(F)cc2)C3)cc1 [Compound 233] | 15 nM | 10 nM
CC(C)(O)CC(=O)N1CCn2c(nc(-c3cccc(F)c3)c2Nc2ccc(Cl)c(F)c2)C1 [Compound 234] | 111 nM | 130 nM
CC(C)(O)CC(=O)N1CCn2c(nc(-c3cccc(F)c3)c2Nc2ccc(F)cc2)C1 [Compound 235] | 496 nM | 540 nM
CC(C)(C)OC(=O)N[C@@H](CC(=O)OCc1ccccc1)C(=O)N1CCn2c(nc(-c3cccc(F)c3)c2Nc2ccc(Cl)c(F)c2)C1 [Compound 236] | 2060 nM | 5250 nM
CC(C)(C)OC(=O)N[C@@H](CC(=O)OCc1ccccc1)C(=O)N1CCn2c(nc(-c3cccc(F)c3)c2Nc2ccc(F)cc2)C1 [Compound 237] | 5720 nM | 7190 nM
CC(C)(C)OC(=O)N[C@@H](CC(=O)O)C(=O)N1CCn2c(nc(-c3cccc(F)c3)c2Nc2ccc(Cl)c(F)c2)C1 [Compound 240] | 6990 nM | 10500 nM
CC(C)(C)OC(=O)N[C@@H](CC(=O)O)C(=O)N1CCn2c(nc(-c3cccc(F)c3)c2Nc2ccc(F)cc2)C1 [Compound 241] | 2360 nM | 5270 nM

Compound | EC50 (W2 strain) | EC50 (3D7 P. falciparum strain)
CC(C)(C)OC(=O)N[C@@H](Cc1ccc(N)cc1)C(=O)N1CCn2c(nc(-c3cccc(F)c3)c2Nc2ccc(Cl)c(F)c2)C1 [Compound 242] | 288 nM | 2090 nM
CC(C)(C)OC(=O)N[C@@H](Cc1ccc(N)cc1)C(=O)N1CCn2c(nc(-c3cccc(F)c3)c2Nc2ccc(F)cc2)C1 [Compound 243] | 697 nM | 2970 nM
Cc1ccc(Nc2c(-c3ccc(F)cc3)nc3n2CCN(C(=O)C(C)(C)CO)C3)cc1 [Compound 244] | 1330 nM | 2400 nM
Cc1ccc(Nc2c(-c3ccc(F)cc3)nc3n2CCN(C(=O)C(C)(CO)CO)C3)cc1 [Compound 245] | 1800 nM | 2530 nM
Cc1ccc(Nc2c(-c3ccc(F)cc3)nc3n2CCN(C(=O)[C@H](Cc2cccc(N)c2)NC(=O)OC(C)(C)C)C3)cc1 [Compound 246] | 1790 nM | 3880 nM
CCCNC(=O)C[C@H](NC(=O)OC(C)(C)C)C(=O)N1CCn2c(nc(-c3cccc(F)c3)c2Nc2ccc(Cl)c(F)c2)C1 [Compound 247] | 3940 nM | 1420 nM
CCCNC(=O)C[C@H](NC(=O)OC(C)(C)C)C(=O)N1CCn2c(nc(-c3cccc(F)c3)c2Nc2ccc(F)cc2)C1 [Compound 248] | 4560 nM | 7010 nM
N#Cc1ccc(Nc2c(-c3ccc(F)cc3)nc3n2CCNC3)cc1 [Compound 249] | 5060 nM | 5390 nM
CCCCCNC(=O)C[C@H](NC(=O)OC(C)(C)C)C(=O)N1CCn2c(nc(-c3cccc(F)c3)c2Nc2ccc(F)cc2)C1 [Compound 250] | 3980 nM | 3880 nM
CCCCC(=O)Nc1ccc(C[C@H](NC(=O)OC(C)(C)C)C(=O)N2CCn3c(nc(-c4cccc(F)c4)c3Nc3ccc(Cl)c(F)c3)C2)cc1 [Compound 252] | 631 nM | 3030 nM
CCC(=O)Nc1ccc(C[C@H](NC(=O)OC(C)(C)C)C(=O)N2CCn3c(nc(-c4cccc(F)c4)c3Nc3ccc(Cl)c(F)c3)C2)cc1 [Compound 253] | 254 nM | 780 nM
CCCCC(=O)Nc1ccc(C[C@H](NC(=O)OC(C)(C)C)C(=O)N2CCn3c(nc(-c4cccc(F)c4)c3Nc3ccc(F)cc3)C2)cc1 [Compound 254] | 727 nM | 3440 nM
CCCNC(=O)C[C@H](N)C(=O)N1CCn2c(nc(-c3cccc(F)c3)c2Nc2ccc(Cl)c(F)c2)C1 [Compound 255] | 653 nM | 610 nM
CCCNC(=O)C[C@H](N)C(=O)N1CCn2c(nc(-c3cccc(F)c3)c2Nc2ccc(F)cc2)C1 [Compound 256] | 1480 nM | 1160 nM
CCCCCNC(=O)C[C@H](N)C(=O)N1CCn2c(nc(-c3cccc(F)c3)c2Nc2ccc(F)cc2)C1 [Compound 257] | 7000 nM | 6680 nM
CCCCC(=O)Nc1ccc(C[C@H](N)C(=O)N2CCn3c(nc(-c4cccc(F)c4)c3Nc3ccc(Cl)c(F)c3)C2)cc1 [Compound 258] | 3510 nM | 4920 nM
CCC(=O)Nc1ccc(C[C@H](N)C(=O)N2CCn3c(nc(-c4cccc(F)c4)c3Nc3ccc(Cl)c(F)c3)C2)cc1 [Compound 259] | 3020 nM | 5320 nM
CCCCC(=O)Nc1ccc(C[C@H](N)C(=O)N2CCn3c(nc(-c4cccc(F)c4)c3Nc3ccc(F)cc3)C2)cc1 [Compound 260] | 5010 nM | 7640 nM
CCC(=O)Nc1ccc(C[C@H](N)C(=O)N2CCn3c(nc(-c4cccc(F)c4)c3Nc3ccc(F)cc3)C2)cc1 [Compound 261] | 4130 nM | 7060 nM
